Experiments:
Format in all cases: cell-based, human
T-C6A T-cell line = test: Detection of cytokines, T-cell line generated with C6A
Protocol: (§1) Cells were restimulated every 7 days.
Detection of cytokines—Autologous B cells pulsed with peptides at different concentrations (25, 12.5, 6.25 and 3, 13, and 1.56 μg/ml) were incubated with MUC1-specific T-cell lines at a 2:1 ratio for 24 hours.

[1] = test system: PBMCs from vaccinated cancer patients; test: Establishment of T-cell lines with peptide-pulsed APCs
From the text: Patients-PBMCs were used from two patients with prostate cancer enrolled in a previously described clinical trial of PSA-TRICOM vaccine in combination with […] al., Lancet Oncol., 13: 501-8 (2012)). An institutional review board of the National Institutes of Health (NIH) Clinical Center had approved the procedures, and informed consent was obtained in accordance with the Declaration of Helsinki. […] Cells were restimulated every 7 days.

T-C7 T-cell line = test: Detection of cytokines, T-cell line generated with native C7; settings: 24 hours with peptide-pulsed B-cells
Protocol: as §1
(§2) Detection of cytokines—Autologous B cells pulsed with peptides at different concentrations (25, 12.5, 6.25 and 3, 13, and 1.56 μg/ml) were incubated with MUC1-specific T-cell lines at a 2:1 ratio for 24 hours. The supernatants were analyzed for IFN-γ by ELISA (Invitrogen, Frederick, Md.).
(§3) Each cell line was then stimulated for 24 hours with B-cells pulsed with either the native C7 or agonist C7A peptide, and cytokine levels in the supernatant were analyzed.

T-C7A T-cell line = test: Detection of cytokines, T-cell line generated with agonist C7A; settings: 24 hours with peptide-pulsed B-cells
Protocol: as §1, §2, §3

[2] = T-cell line T-C6A stimulated with peptide
[3] = stimulation of the T-cell line generated with C6A

Sequence	generation of T-cell lines using APCs pulsed with the peptide [1]	GM-CSF (T-C7 T-cell line)	IFN-γ (T-C7 T-cell line)	IL-2 (T-C7 T-cell line)	IL-6 (T-C7 T-cell line)	IL-8 (T-C7 T-cell line)	IL-10 (T-C7 T-cell line)	TNFα (T-C7 T-cell line)	GM-CSF (T-C7A T-cell line)	IFN-γ (T-C7A T-cell line)	IL-2 (T-C7A T-cell line)	IL-6 (T-C7A T-cell line)	IL-8 (T-C7A T-cell line)	IL-10 (T-C7A T-cell line)	TNFα (T-C7A T-cell line)	also measured
KYHPMSEYAL [Peptide C6A]	could be generated	–	–	–	–	–	–	–	–	–	–	–	–	–	–	GM-CSF (T-C6A T-cell line; [2]): 1277 pg/mL/2.5 × 10^5 T cells; IFN-γ (T-C6A T-cell line; [2]): 3060 pg/mL/2.5 × 10^5 T cells; IL-2 (T-C6A T-cell line; [2]): 3630 pg/mL/2.5 × 10^5 T cells; IL-6 (T-C6A T-cell line; [2]): 7.6 pg/mL/2.5 × 10^5 T cells; IL-8 (T-C6A T-cell line; [2]): 11.8 pg/mL/2.5 × 10^5 T cells; IL-10 (T-C6A T-cell line; [2]): 16.4 pg/mL/2.5 × 10^5 T cells; TNFα (T-C6A T-cell line; [2]): 1021 pg/mL/2.5 × 10^5 T cells; GM-CSF level (T-C6A T-cell line; [3]): > 10,000 pg/mL/10^5 cells; IFN-γ level (T-C6A T-cell line; [3]): 2,651 pg/mL/10^5 cells; IL-2 level (T-C6A T-cell line; [3]): < 50 pg/mL/10^5 cells; IL-6 level (T-C6A T-cell line; [3]): < 50 pg/mL/10^5 cells; IL-8 level (T-C6A T-cell line; [3]): > 10,000 pg/mL/10^5 cells; IL-10 level (T-C6A T-cell line; [3]): < 50 pg/mL/10^5 cells; IL-12 level (T-C6A T-cell line; [3]): < 50 pg/mL/10^5 cells; TNF-α level (T-C6A T-cell line; [3]): 372 pg/mL/10^5 cells
KYTNPAVAL [Peptide C7A]	could be generated	300 pg/mL/2.5 × 10^5 T cells	1279 pg/mL/2.5 × 10^5 T cells	<2.4 pg/mL/2.5 × 10^5 T cells	7.7 pg/mL/2.5 × 10^5 T cells	7.3 pg/mL/2.5 × 10^5 T cells	45 pg/mL/2.5 × 10^5 T cells	30 pg/mL/2.5 × 10^5 T cells	910 pg/mL/2.5 × 10^5 T cells	2000 pg/mL/2.5 × 10^5 T cells	<2.4 pg/mL/2.5 × 10^5 T cells	40 pg/mL/2.5 × 10^5 T cells	360 pg/mL/2.5 × 10^5 T cells	375 pg/mL/2.5 × 10^5 T cells	70 pg/mL/2.5 × 10^5 T cells	–
SYTNPAVAA [Peptide C7, native MUC1-C HLA-A24 peptide, position 502-510, reference compound]	could be generated	237 pg/mL/2.5 × 10^5 T cells	750 pg/mL/2.5 × 10^5 T cells	<2.4 pg/mL/2.5 × 10^5 T cells	6.4 pg/mL/2.5 × 10^5 T cells	6.8 pg/mL/2.5 × 10^5 T cells	25 pg/mL/2.5 × 10^5 T cells	21 pg/mL/2.5 × 10^5 T cells	215 pg/mL/2.5 × 10^5 T cells	680 pg/mL/2.5 × 10^5 T cells	<2.4 pg/mL/2.5 × 10^5 T cells	<2.4 pg/mL/2.5 × 10^5 T cells	112 pg/mL/2.5 × 10^5 T cells	92 pg/mL/2.5 × 10^5 T cells	30 pg/mL/2.5 × 10^5 T cells	–
TYHPMSEYPT [Peptide C6, native MUC1-C HLA-A24 peptide, position 462-471, reference compound]	unsuccessful	–	–	–	–	–	–	–	–	–	–	–	–	–	–	–

Reference: patent US11732017B2, “HLA-A24 agonist epitopes of MUC1-C oncoprotein and compositions and methods of use” (The USA, as represented by the Secretary, Dept. of Health …, priority 2013, dated 2023)
